# Article PMC1968618, “Acetylsalicylic acid (ASA) protects the prostaglandin-cAMP-system of human hypernephroma cells against irradiation-induced alterations” (British Journal of Cancer, 1993)
# Where “and” joins values, the source holds several entries; their conditions need not be identical. Equal values may be shown once. Read-outs that look alike come from different tables or passages of the source.
# Legend:
# [1] = test system: PG biosynthesis of human hypernephroma cells; assay: Conversion of exogenously added 14C-AA to its metabolites (radiothinlayer chromatography); assay type: cell-based; conditions: for 14C-AA conversion to 12-HETE, Table IV / 14C-AA conversion to PGD2, Table IV / 14C-AA conversion to PGE2, Table IV / 14C-AA conversion to PGF2alpha, Table IV / 14C-AA conversion to TXB2, Table IV / AA (%) remaining, Table IV: individual cell lines
# [2] = test system: human hypernephroma cells; assay: Cellular viability (phase-contrast microscopy and Trypan Blue exclusion); assay type: cell-based; conditions: ASA incubation for 24 h
# [3] = test system: PGE1-binding sites (3H-PGE1-receptors) on human hypernephroma cells; assay: Saturation binding of 3H-PGE1 to cultured hypernephroma cells (Scatchard analysis); conditions: for Bmax, 3H-PGE1 binding, Table II: individual cell lines; for Bmax (binding capacity), 3H-PGE1 binding / Kd: mean of cell lines; for Kd: read-out: Kd (dissociation constant), 3H-PGE1 binding
# [4] = test system: PG binding sites on human hypernephroma cells; assay: Time course of specific 3H-PG binding (association, dissociation); conditions: 3H-iloprost, 3H-PGE1 each 84 nM, 3H-PGE2 45 nM; stable for at least 80 min
# [5] = test system: PGE2-binding sites (3H-PGE2-receptors) on human hypernephroma cells; assay: Saturation binding of 3H-PGE2 to cultured hypernephroma cells (Scatchard analysis); conditions: for Bmax, 3H-PGE2 binding, Table III: individual cell lines; for Bmax (binding capacity), 3H-PGE2 binding / Kd: mean of cell lines; for Kd: read-out: Kd (dissociation constant), 3H-PGE2 binding
# [6] = molecular target: T1, PGI2-binding sites (3H-iloprost receptors) on human hypernephroma cells (Homo sapiens, UniProt P43119); assay: Saturation binding of 3H-iloprost to cultured hypernephroma cells (Scatchard analysis); conditions: for Bmax (binding capacity), 3H-iloprost binding: mean of cell lines; for Bmax, 3H-iloprost binding, Table I: individual cell lines
# T1 construct: endogenous in cells; host or cells: primary cultures of human renal cell carcinoma (hypernephroma) cells, one line per patient
# T1 sequence (P43119 whole entry): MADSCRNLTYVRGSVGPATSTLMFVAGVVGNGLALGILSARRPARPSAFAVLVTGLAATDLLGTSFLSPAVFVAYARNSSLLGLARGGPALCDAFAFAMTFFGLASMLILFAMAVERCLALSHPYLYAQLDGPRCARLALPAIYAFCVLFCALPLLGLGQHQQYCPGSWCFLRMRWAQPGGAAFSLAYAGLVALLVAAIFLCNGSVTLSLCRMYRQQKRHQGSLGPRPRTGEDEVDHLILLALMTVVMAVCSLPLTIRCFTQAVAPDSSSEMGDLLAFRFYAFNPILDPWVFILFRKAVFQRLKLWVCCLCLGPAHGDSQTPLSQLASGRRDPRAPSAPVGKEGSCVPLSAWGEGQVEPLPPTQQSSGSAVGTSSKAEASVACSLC
# [7] = ASA-treated group (group 2), patients 1,3,4,6,8,9,11 in order
# [8] = ASA-treated group irradiated (group 4), patients 3,4,6,9,11 in order
# [9] = ASA-treated group (group 2), ASA 0.5 mg 10-6 cells for 24 h
# [10] = ASA-treated group irradiated (group 4)
# [11] = ASA-treated group irradiated (group 4), listed as 3H-PGE1
# [12] = control group (group 1), no ASA, no irradiation
# [13] = control group (group 1), no ASA, no irradiation, listed as 3H-PGE1
# [14] = control group irradiated (group 3), 60Co 1.0 Gy min-1 over 10 min, assay about 2 h after
compound,measurement,setting,value
"CC(=O)Oc1ccccc1C(=O)O [ASA, acetylsalicylic acid]","14C-AA conversion to 12-HETE, Table IV",[1]; [7],6.9% and 4.2% and 7.3% and 5.5% and 5.3% and 4.9% and 8.8%
same,"14C-AA conversion to PGD2, Table IV",[1]; [7],1.3% and 0.9% and 0.2% and 0.5% and 0.4% and 0.6% and 0.8%
same,"14C-AA conversion to PGE2, Table IV",[1]; [7],1.8% (2×) and 1.1% and 2.2% and 0.7% and 1.5% and 1.3%
same,"14C-AA conversion to PGF2alpha, Table IV",[1]; [7],1.7% and 0.7% and 0.8% and 0.2% and 0.3% (2×) and 0.5%
same,"14C-AA conversion to TXB2, Table IV",[1]; [7],1.2% and 0.8% and 1.7% and 1.3% (2×) and 2.3% and 1.5%
same,"AA (%) remaining, Table IV",[1]; [7],66.5% and 78.2% and 72.9% and 78.5% (2×) and 82.8% and 81.0%
same,14C-AA conversion to PGF2alpha,"[1]; ASA-treated group (group 2), mean (control group […])",0.6%
same,14C-AA conversion to 12-HETE,"[1]; ASA-treated group (group 2), mean (control group 3.7)",6.1%
same,14C-AA conversion to TXB2,"[1]; ASA-treated group (group 2), mean (control group 8.0)",1.4%
same,"14C-AA conversion to 12-HETE, Table IV",[1]; [8],4.9% and 5.1% (2×) and 4.8% (2×)
same,"14C-AA conversion to PGD2, Table IV",[1]; [8],0.3% and 0.9% and 0.8% and 0.5% and 0.4%
same,"14C-AA conversion to PGE2, Table IV",[1]; [8],0.8% and 1.6% and 1.9% and 1.1% and 1.8%
same,"14C-AA conversion to PGF2alpha, Table IV",[1]; [8],0.5% and 0.9% and 0.2% and 0.8% and 0.4%
same,"14C-AA conversion to TXB2, Table IV",[1]; [8],1.3% and 1.2% and 1.1% and 1.5% and 0.6%
same,"AA (%) remaining, Table IV",[1]; [8],82.9% and 74.3% and 81.2% and 73.7% and 79.4%
same,14C-AA conversion to PGF2alpha,"[1]; ASA-treated group irradiated (group 4), mean (control irradiated 2.7)",0.6%
same,14C-AA conversion to PGD2,"[1]; ASA-treated group irradiated (group 4), mean (control irradiated 3.0)",0.6%
same,14C-AA conversion to 12-HETE,"[1]; ASA-treated group irradiated (group 4), mean (control irradiated 4.1)",4.9%
same,14C-AA conversion to TXB2,"[1]; ASA-treated group irradiated (group 4), mean (control irradiated 7.4)",1.1%
same,14C-AA conversion to PGE2,"[1]; ASA-treated group irradiated (group 4), mean (control irradiated 9.0)",1.4%
same,cellular viability,[2],unchanged
CCCCC[C@H](O)/C=C/[C@H]1[C@H](O)CC(=O)[C@@H]1CCCCCCC(=O)O [PGE1],"Bmax, 3H-PGE1 binding, Table II","[3]; ASA (group 2), patients 1,3,4,5,6,7,8,9,10,11 in order, listed as 3H-PGE1",811 fmol mg-1 protein and 923 fmol mg-1 protein and 1076 fmol mg-1 protein and 1019 fmol mg-1 protein and 1367 fmol mg-1 protein and 897 fmol mg-1 protein and 1773 fmol mg-1 protein and 736 fmol mg-1 protein and 1064 fmol mg-1 protein and 1171 fmol mg-1 protein
same,"Bmax (binding capacity), 3H-PGE1 binding",[3]; [9],1084 +/- 303 fmol mg-1 protein
same,"Bmax (binding capacity), 3H-PGE1 binding","[3]; ASA-treated group (group 2), ASA 0.5 mg 10-6 cells for 24 h, listed as 3H-PGE1",1084 fmol mg-1 protein
same,Kd,[3]; [9],2.8 ± 1.3 nM
same,"Bmax (binding capacity), 3H-PGE1 binding",[3]; [10],699 +/- 240 fmol mg-1 protein
same,"Bmax (binding capacity), 3H-PGE1 binding",[3]; [11],699 fmol mg-1 protein
same,Kd,[3]; [11],3 nM
same,"Bmax, 3H-PGE1 binding, Table II","[3]; control (group 1), patients 1,3,4,5,6,7,8,9,10,11 in order, listed as 3H-PGE1",781 fmol mg-1 protein and 372 fmol mg-1 protein and 978 fmol mg-1 protein and 911 fmol mg-1 protein and 694 fmol mg-1 protein and 893 fmol mg-1 protein and 1041 fmol mg-1 protein and 643 fmol mg-1 protein and 555 fmol mg-1 protein and 685 fmol mg-1 protein
same,"Bmax (binding capacity), 3H-PGE1 binding",[3]; [12],755 +/- 206 fmol mg-1 protein
same,"Bmax (binding capacity), 3H-PGE1 binding",[3]; [13],755 fmol mg-1 protein
same,Kd,[3]; [13],~4 nM
same,Kd,[3]; [12],3.7 ± 2.7 nM
same,"Bmax (binding capacity), 3H-PGE1 binding",[3]; [14],266 +/- 153 fmol mg-1 protein
same,"Bmax (binding capacity), 3H-PGE1 binding","[3]; control group irradiated (group 3), 60Co 1.0 Gy min-1 over 10 min, assay about 2 h after, listed as 3H-PGE1",266 fmol mg-1 protein
same,Kd,[3]; [14],5 ± 5 nM
same,"Bmax, 3H-PGE1 binding, Table II","[3]; irradiation, ASA (group 4), patients 3,6,7,9,10,11 in order, listed as 3H-PGE1",679 fmol mg-1 protein and 867 fmol mg-1 protein and 615 fmol mg-1 protein and 268 fmol mg-1 protein and 884 fmol mg-1 protein and 879 fmol mg-1 protein
same,"Bmax, 3H-PGE1 binding, Table II","[3]; irradiation, control (group 3), patients 3,6,7,9,10,11 in order, listed as 3H-PGE1",267 fmol mg-1 protein and 504 fmol mg-1 protein and 301 fmol mg-1 protein and 137 fmol mg-1 protein and 319 fmol mg-1 protein and 68 fmol mg-1 protein
same,time to reach binding equilibrium,[4],≤ 20 min
CCCCC[C@H](O)/C=C/[C@H]1[C@H](O)CC(=O)[C@@H]1C/C=C\CCCC(=O)O [PGE2],"Bmax, 3H-PGE2 binding, Table III","[5]; ASA (group 2), patients 1,3,4,5,6,8,9,10,11 in order, listed as 3H-PGE2",650 fmol mg-1 protein and 162 fmol mg-1 protein and 858 fmol mg-1 protein and 780 fmol mg-1 protein and 1104 fmol mg-1 protein and 986 fmol mg-1 protein and 666 fmol mg-1 protein and 324 fmol mg-1 protein and 441 fmol mg-1 protein
same,"Bmax (binding capacity), 3H-PGE2 binding",[5]; [9],663 +/- 309 fmol mg-1 protein
same,"Bmax (binding capacity), 3H-PGE2 binding","[5]; ASA-treated group (group 2), ASA 0.5 mg 10-6 cells for 24 h, listed as 3H-PGE2",663 fmol mg-1 protein
same,Kd,[5]; [9],2.2 ± 1.5 nM
same,"Bmax (binding capacity), 3H-PGE2 binding",[5]; [10],287 fmol mg-1 protein
same,Kd,[5]; [10],3.5 nM
same,"Bmax, 3H-PGE2 binding, Table III","[5]; control (group 1), patients 1,3,4,5,6,8,9,10,11 in order, listed as 3H-PGE2",563 fmol mg-1 protein and 143 fmol mg-1 protein and 478 fmol mg-1 protein and 650 fmol mg-1 protein and 930 fmol mg-1 protein and 438 fmol mg-1 protein and 534 fmol mg-1 protein and 313 fmol mg-1 protein and 398 fmol mg-1 protein
same,"Bmax (binding capacity), 3H-PGE2 binding",[5]; [12],494 +/- 221 fmol mg-1 protein
same,"Bmax (binding capacity), 3H-PGE2 binding","[5]; control group (group 1), no ASA, no irradiation, listed as 3H-PGE2",494 fmol mg-1 protein
same,Kd,[5]; [12],4.2 ± 2.5 nM
same,"Bmax (binding capacity), 3H-PGE2 binding",[5]; [14],148 +/- 66 fmol mg-1 protein
same,"Bmax (binding capacity), 3H-PGE2 binding","[5]; control group irradiated (group 3), 60Co 1.0 Gy min-1 over 10 min, assay about 2 h after, listed as 3H-PGE2",148 fmol mg-1 protein
same,Kd,[5]; [14],4.7 ± 3.6 nM
same,"Bmax, 3H-PGE2 binding, Table III","[5]; irradiation, ASA (group 4), patients 3,6,8,9,10,11 in order, listed as 3H-PGE2",181 fmol mg-1 protein and 336 fmol mg-1 protein and 338 fmol mg-1 protein and 466 fmol mg-1 protein and 232 fmol mg-1 protein and 170 fmol mg-1 protein
same,"Bmax, 3H-PGE2 binding, Table III","[5]; irradiation, control (group 3), patients 3,6,8,9,10,11 in order, listed as 3H-PGE2",63 fmol mg-1 protein and 209 fmol mg-1 protein and 218 fmol mg-1 protein and 112 fmol mg-1 protein and 96 fmol mg-1 protein and 189 fmol mg-1 protein
same,time to reach binding equilibrium,[4],≤ 30 min
CCCCC[C@H](O)/C=C/[C@@H]1[C@H]2C/C(=C/CCCC(=O)O)O[C@H]2C[C@H]1O [PGI2],"Bmax (binding capacity), 3H-iloprost binding",[6]; [12],693 +/- 164 fmol mg-1 protein
same,"Bmax (binding capacity), 3H-iloprost binding",[6]; [14],325 +/- 194 fmol mg-1 protein
CC#CCC(C)[C@H](O)/C=C/[C@@H]1[C@H]2C/C(=C/CCCC(=O)O)C[C@H]2C[C@H]1O (stereo partly shown) [iloprost],"Bmax, 3H-iloprost binding, Table I","[6]; ASA (group 2), patients 1,2,3,4,5,6,7,8,9,10,11 in order, listed as 3H-iloprost",813 fmol mg-1 protein and 855 fmol mg-1 protein and 987 fmol mg-1 protein and 960 fmol mg-1 protein and 916 fmol mg-1 protein and 1047 fmol mg-1 protein and 2024 fmol mg-1 protein and 1301 fmol mg-1 protein and 442 fmol mg-1 protein and 1023 fmol mg-1 protein and 861 fmol mg-1 protein
same,"Bmax (binding capacity), 3H-iloprost binding",[6]; [9],1021 fmol mg-1 protein
same,"Bmax (binding capacity), 3H-iloprost binding",[6]; [10],766 +/- 452 fmol mg-1 protein
same,"Bmax (binding capacity), 3H-iloprost binding","[6]; ASA-treated group irradiated (group 4), listed as 3H-iloprost",766 fmol mg-1 protein
same,"Bmax, 3H-iloprost binding, Table I","[6]; control (group 1), patients 1,2,3,4,5,6,7,8,9,10,11 in order, listed as 3H-iloprost",741 fmol mg-1 protein and 635 fmol mg-1 protein and 876 fmol mg-1 protein and 732 fmol mg-1 protein and 808 fmol mg-1 protein and 806 fmol mg-1 protein and 649 fmol mg-1 protein and 407 fmol mg-1 protein and 382 fmol mg-1 protein and 829 fmol mg-1 protein and 756 fmol mg-1 protein
same,"Bmax (binding capacity), 3H-iloprost binding",[6]; [12],693 fmol mg-1 protein
same,"Bmax (binding capacity), 3H-iloprost binding",[6]; [14],325 fmol mg-1 protein
same,"Bmax, 3H-iloprost binding, Table I","[6]; irradiation, ASA (group 4), patients 3,4,6,7,9,10,11 in order, listed as 3H-iloprost",489 fmol mg-1 protein and 354 fmol mg-1 protein and 867 fmol mg-1 protein and 1551 fmol mg-1 protein and 364 fmol mg-1 protein and 1162 fmol mg-1 protein and 576 fmol mg-1 protein
same,"Bmax, 3H-iloprost binding, Table I","[6]; irradiation, control (group 3), patients 3,4,6,7,9,10,11 in order, listed as 3H-iloprost",332 fmol mg-1 protein and 287 fmol mg-1 protein and 432 fmol mg-1 protein and 699 fmol mg-1 protein and 204 fmol mg-1 protein and 203 fmol mg-1 protein and 118 fmol mg-1 protein
same,time to reach binding equilibrium,[4],≤ 20 min
